From patent publication US5789625A, “Metal-ligand complex catalyzed processes” (priority 1996, dated 1998)

What was measured:
[1] = cited from earlier work
[2] = Extraction experiment: partitioning of base from butyraldehyde to equimolar aqueous H3PO3 (Example 5, Table A); type: physicochemical
Description: The following series of experiments were performed in order to determine the relationship of the pKa of a base to the effectiveness of the base to remain in the organic phase upon contact with an equimolar aqueous acid solution. In all cases the experiments were performed under nitrogen, unless otherwise specified.
Solutions were prepared by dissolving a quantity of acid or base in solvent so that the final concentration was equal to 0.1 moles/liter. The 1×10^-3 moles/liter solutions were prepared by taking an aliquot of the 0.1 moles/liter solution and diluting to the specified concentration. The 1×10^-5 moles/liter solutions were prepared in the same manner as the 1×10^-3 moles/liter solution with the modification of using an aliquot of the 1×10^-3 moles/liter solution in place of the 0.1 moles/liter solution.
In each extraction experiment, 5 milliliters of base solution in butyraldehyde was added to a clean, dry vial. To this vial was added 5 milliliters of equimolar H3 PO3 solution. The resulting mixture was rapidly shaken for several minutes and then allowed to phase separate. A 1 milliliter aliquot of the aqueous layer was then transferred to a clean, dry vial. To this vial was added 1 milliliter of pH 7 sodium/potassium phosphate buffer and 0.1 milliliter of Tergitol® 15-S-9 surfactant. The solution was shaken vigorously, and an aliquot was analyzed by high performance liquid chromatography for base content. The amount of base was then compared with a dichloromethane solution at the initial concentration. The partition coefficients calculated are for partitioning of the base from the organic phase to the water phase and is defined as K=amount of base in the water phase/amount of base in the organic phase.

[3] = Stability of Ligand F in butyraldehyde solution containing rhodium, by HPLC (Examples 2-4); type: physicochemical; conditions: for concentration of Ligand F remaining: 0.017 grams phosphorous acid added to 12 gram solution, start 0.39; for change in concentration of Ligand F: no added acid or benzimidazole, 200 ppm rhodium, 0.39 wt% Ligand F in butyraldehyde
[4] = base 1 × 10^-3 moles/liter in butyraldehyde, H3PO3 1 × 10^-3 moles/liter
[5] = base 1 × 10^-5 moles/liter in butyraldehyde, H3PO3 1 × 10^-5 moles/liter

| K (amount of base in the water phase/amount of base in the organic phase) [2, 4] | K (amount of base in the water phase/amount of base in the organic phase) [2, 5] | Structure (SMILES) | pKa of base [1] | concentration of Ligand F remaining ([3]; 24 hours) [percent by weight] | concentration of Ligand F remaining ([3]; 72 hours) [percent by weight] | change in concentration of Ligand F ([3]; 24 hours) | change in concentration of Ligand F ([3]; 72 hours) |
| --- | --- | --- | --- | --- | --- | --- | --- |
| – | – | O=C1CCCN1Cc1ccccc1 [1-benzyl-2-pyrrolidinone] | -0.7 | – | – | – | – |
| 0.22 | 0.30 | c1ccc(Cc2ccccn2)cc1 [2-benzylpyridine] | – | – | – | – | – |
| 0.93 | 0.00 | CC(=O)c1cccnc1 [3-acetylpyridine] | 3.3 | – | – | – | – |
| – | – | CC(C)(C)c1cc(-c2cc(C(C)(C)C)cc(C(C)(C)C)c2Op2oc3ccccc3c3ccccc3o2)c(Op2oc3ccccc3c3ccccc3o2)c(C(C)(C)C)c1 [Ligand F] | – | 0.12 | 0.04 | No change | No change |
